Molecular target: T1, Coagulation factor X (Homo sapiens, UniProt P00742)
Test: Binding affinity against the Factor Xa (FXa)

T1 sequence (P00742 41-179 limits assumed): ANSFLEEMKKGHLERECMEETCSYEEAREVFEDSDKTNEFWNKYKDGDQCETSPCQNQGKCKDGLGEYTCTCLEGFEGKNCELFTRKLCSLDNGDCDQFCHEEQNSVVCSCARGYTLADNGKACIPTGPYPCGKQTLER
T1 sequence (P00742 235-488 limits assumed): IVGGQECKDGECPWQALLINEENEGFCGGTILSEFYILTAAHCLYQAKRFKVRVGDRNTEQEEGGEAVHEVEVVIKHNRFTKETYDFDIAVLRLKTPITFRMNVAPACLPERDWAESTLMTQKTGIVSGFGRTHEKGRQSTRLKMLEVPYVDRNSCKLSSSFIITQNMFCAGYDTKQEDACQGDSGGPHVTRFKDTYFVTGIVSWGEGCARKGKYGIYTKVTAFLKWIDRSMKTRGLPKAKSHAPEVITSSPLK

Going from `NS(=O)(=O)c1ccccc1-c1ccc(NC(=O)C2CC(c3ccc(C(F)F)cc3)=NO2)cc1` (configuration not stated) to `NS(=O)(=O)c1ccccc1-c1ccc(NC(=O)C2CC(c3ccc(O)cc3)=NO2)cc1` (configuration not stated), the Ki rises from 1.6 µM to 22 µM (14-fold). The first binds more tightly here.

`NS(=O)(=O)c1ccccc1-c1ccc(NC(=O)C2CC(c3ccc4c(c3Cl)OCO4)=NO2)cc1` (configuration not stated) and `NS(=O)(=O)c1ccccc1-c1ccc(NC(=O)C2CC(c3ccc4c(c3[N+](=O)[O-])OCO4)=NO2)cc1` (configuration not stated) are within 1.5-fold of each other in Ki: 1.7 µM for the first, 2.4 µM for the second.

`NS(=O)(=O)c1ccccc1-c1ccc(NC(=O)C2CC(c3cccc(O)c3)=NO2)cc1` (configuration not stated) and `NS(=O)(=O)c1ccccc1-c1ccc(NC(=O)C2CC(c3cccc(Br)c3)=NO2)cc1` (configuration not stated) cannot be ordered by Ki: > 3 µM for the first, > 30 µM for the second.

First: NS(=O)(=O)c1ccccc1-c1ccc(NC(=O)C2CC(c3ccc(-c4ccccc4)cc3)=NO2)cc1 (configuration not stated)
Second: NS(=O)(=O)c1ccccc1-c1ccc(NC(=O)C2CC(c3ccccc3)=NO2)cc1 (configuration not stated)
The Ki of the first is 10-fold lower: 1.1 µM for the first, 11 µM for the second.

`NS(=O)(=O)c1ccccc1-c1ccc(NC(=O)C2CC(c3cccc4ccccc34)=NO2)cc1` (configuration not stated) and `NS(=O)(=O)c1ccccc1-c1ccc(NC(=O)C2CC(c3c(O)ccc4ccccc34)=NO2)cc1` (configuration not stated) cannot be ordered by Ki: > 30 µM for the first, > 30 µM for the second.

First: CCCCCCCCCCC1=NOC(C(=O)Nc2ccc(-c3ccccc3S(N)(=O)=O)cc2)C1 (configuration not stated)
Second: CCCCCCOc1ccccc1C1=NOC(C(=O)Nc2ccc(-c3ccccc3S(N)(=O)=O)cc2)C1 (configuration not stated)
The Ki of the first is 9.4-fold higher: 17 µM for the first, 1.8 µM for the second.

First: NS(=O)(=O)c1ccccc1-c1ccc(NC(=O)C2CC(c3cc(I)c(O)c(I)c3)=NO2)cc1 (configuration not stated)
Second: NS(=O)(=O)c1ccccc1-c1ccc(NC(=O)C2CC(c3cccc(I)c3)=NO2)cc1 (configuration not stated)
The Ki of the first is higher: > 30 µM for the first, 10 µM for the second. The second binds more tightly here.

First: NS(=O)(=O)c1ccccc1-c1ccc(NC(=O)C2CC(c3ccc(Cl)cc3Cl)=NO2)cc1 (configuration not stated)
Second: NS(=O)(=O)c1ccccc1-c1ccc(NC(=O)C2CC(c3ccc(Cl)c(Cl)c3)=NO2)cc1 (configuration not stated)
The Ki of the first is 1.6-fold lower: 1.7 µM for the first, 2.7 µM for the second. The first binds more tightly here.

`COc1ccc2ccccc2c1C1=NOC(C(=O)Nc2ccc(-c3ccccc3S(N)(=O)=O)cc2)C1` (configuration not stated) and `NS(=O)(=O)c1ccccc1-c1ccc(NC(=O)C2CC(c3ccc4ccccc4c3)=NO2)cc1` (configuration not stated) cannot be ordered by Ki: > 3 µM for the first, 20 µM for the second.

First: NS(=O)(=O)c1ccccc1-c1ccc(NC(=O)C2CC(CCc3ccccc3)=NO2)cc1 (configuration not stated)
Second: NS(=O)(=O)c1ccccc1-c1ccc(NC(=O)C2CC(/C=C/c3ccccc3)=NO2)cc1 (configuration not stated)
The Ki of the first is higher: > 30 µM for the first, 2.3 µM for the second.

Going from `NS(=O)(=O)c1ccccc1-c1ccc(NC(=O)C2CC(c3ccc4c(c3)OCO4)=NO2)cc1` (configuration not stated) to `NS(=O)(=O)c1ccccc1-c1ccc(NC(=O)C2CC(c3ccc(Cl)c(F)c3)=NO2)cc1` (configuration not stated), the Ki rises from 0.49 µM to 2.5 µM (5.1-fold).

First: NS(=O)(=O)c1ccccc1-c1ccc(NC(=O)C2CC(c3cccc(C(F)(F)F)c3)=NO2)cc1 (configuration not stated)
Second: NS(=O)(=O)c1ccccc1-c1ccc(NC(=O)C2CC(c3cccc(C(=O)O)c3)=NO2)cc1 (configuration not stated)
The Ki of the first is lower: 17 µM for the first, > 30 µM for the second.

First: NS(=O)(=O)c1ccccc1-c1ccc(NC(=O)C2C[C+](c3ccc(Cl)c([N+](=O)[O-])c3)[N-]O2)cc1 (configuration not stated)
Second: NS(=O)(=O)c1ccccc1-c1ccc(NC(=O)C2CC(c3ccccc3Cl)=NO2)cc1 (configuration not stated)
The Ki of the first is higher: > 30 µM for the first, 1.7 µM for the second. The second binds more tightly here.

Compared with `NS(=O)(=O)c1ccccc1-c1ccc(NC(=O)C2CC(c3cccs3)=NO2)cc1` (configuration not stated), `Cc1ccc(C2=NOC(C(=O)Nc3ccc(-c4ccccc4S(N)(=O)=O)cc3)C2)cc1` (configuration not stated) is 1.6-fold higher in Ki: 1.3 µM for the first, 2.1 µM for the second. The first binds more tightly here.

First: NS(=O)(=O)c1ccccc1-c1ccc(NC(=O)C2CC(/C=C/c3ccco3)=NO2)cc1 (configuration not stated)
Second: COc1ccc(C2=NOC(C(=O)Nc3ccc(-c4ccccc4S(N)(=O)=O)cc3)C2)cc1 (configuration not stated)
The Ki of the first is 3.3-fold higher: 2.3 µM for the first, 0.7 µM for the second. The second binds more tightly here.

Compared with `COc1cc(C2=NOC(C(=O)Nc3ccc(-c4ccccc4S(N)(=O)=O)cc3)C2)ccc1O` (configuration not stated), `COc1ccc(Br)cc1C1=NOC(C(=O)Nc2ccc(-c3ccccc3S(N)(=O)=O)cc2)C1` (configuration not stated) is higher in Ki: 20 µM for the first, > 30 µM for the second.

For `CO[C@@H]1[C@H]2OC(C)(C)O[C@H]2O[C@H]1C1=NOC(C(=O)Nc2ccc(-c3ccccc3S(N)(=O)=O)cc2)C1` (some centres not stated), the Ki was > 30 µM.

Molecular target: T1, Coagulation factor X
Test: Binding affinity against the coagulation factor X

First: NS(=O)(=O)c1ccccc1-c1ccc(NC(=O)C2CC(c3ccc(Br)cc3)=NO2)cc1 (configuration not stated)
Second: NS(=O)(=O)c1ccccc1-c1ccc(NC(=O)C2CC(c3ccc(Cl)cc3)=NO2)cc1 (configuration not stated)
The Ki of the first is 4.1-fold higher: 4.1 µM for the first, 1 µM for the second. The second binds more tightly here.

`NS(=O)(=O)c1ccccc1-c1ccc(NC(=O)C2CC(c3cccc(F)c3)=NO2)cc1` (configuration not stated) and `NS(=O)(=O)c1ccccc1-c1ccc(NC(=O)C2CC(c3cccc(Cl)c3)=NO2)cc1` (configuration not stated) are within 1.5-fold of each other in Ki: 7.8 µM for the first, 5.9 µM for the second.

Going from `COc1cccc(C2=NOC(C(=O)Nc3ccc(-c4ccccc4S(N)(=O)=O)cc3)C2)c1` (configuration not stated) to `NS(=O)(=O)c1ccccc1-c1ccc(NC(=O)C2CC(c3ccc(F)c(F)c3)=NO2)cc1` (configuration not stated), the Ki falls from 7.5 µM to 4.6 µM (1.6-fold). The second binds more tightly here.

Compared with `CCCCCC1=NOC(C(=O)Nc2ccc(-c3ccccc3S(N)(=O)=O)cc2)C1` (configuration not stated), `NS(=O)(=O)c1ccccc1-c1ccc(NC(=O)C2CC(c3ccc(I)cc3)=NO2)cc1` (configuration not stated) is 2.4-fold lower in Ki: 4.5 µM for the first, 1.9 µM for the second. The second binds more tightly here.

Molecular target: T1, Coagulation factor X
Test: Binding affinity against Coagulation factor X

With `Nc1cc(C2=NOC(C(=O)Nc3ccc(-c4ccccc4S(N)(=O)=O)cc3)C2)ccc1Cl` (configuration not stated) the Ki was 0.13 µM.

Source: ChEMBL document CHEMBL1136396, “Discovery of 3-amino-4-chlorophenyl P1 as a novel and potent benzamidine mimic via solid-phase synthesis of an isoxazoline library” (Bioorg Med Chem Lett, 2003)
